Test: Freeze-thaw stability of concentrates
Assay type: physicochemical
Experimental: In this example, concentrates according to the present invention were prepared comprising various surfactants and the effect of those surfactants on the freeze-thaw stability of the samples was determined. The concentrates were prepared for an intended dilution ratio of 1 part concentrate to 39 parts water. Each formulation tested comprised 9.2 wt. % formic acid, 9.4 wt. % lactic acid, 23.2 wt. % sodium α-olefin sulfonate (SAOS), and 21 wt. % of the indicated surfactant, with water comprising the balance.
The samples of each formulation were placed in bottles filled to 1.5 inches from the top of the bottles. The bottles containing the samples were placed in a freezer for one day, and removed from the freezer and thawed the subsequent day. The homogeneity of each sample upon thawing was noted. A formulation was considered acceptable if a homogeneous solution was observed upon thawing.

Cocamidopropylbetaine
Physical Stability After 1 Freeze-Thaw Cycle: Non-homogeneous
